Data published in patent US20050255582A1, “Surface modifying composition” (Arch Development Corporation:, priority 2000, published 2005).

How the values were obtained:
Assay type in all cases: binding
Fibrinogen = assay: SPR adsorption of protein on monolayers: fibrinogen; settings: for amount of protein that remains adsorbed to the SAM (Fibrinogen): protein 0.5 mg/ml in PBS pH 7.6, SAM on gold
Description: (§1) Two experimental procedures were used to evaluate the monolayers as inert surfaces. Surface plasmon resonance (SPR) spectroscopy measures the adsorption of protein to the monolayer. All SPR experiments were performed on a BIAcore 1000 instrument. Substrates were glued into plastic BIACore cassettes with a two-part epoxy (DEVCON). Phosphate-buffered saline (PBS; 10 mM phosphate, 150 mM sodium chloride, pH 7.6) was degassed under vacuum and all protein solutions were filtered through 0.45-μm filters before use. SPR is well suited for characterization of protein adsorption because it measures adsorption in situ and can detect weak, readily reversible protein adsorption. For all monolayers, a panel of five proteins that spanned a range in molecular weight and pI were investigated.
Protein adsorption and cell attachment on four different monolayers was compared. Gold films were prepared by evaporation of titanium (1.5 nm) and then gold (40 nm) onto glass cover slips (0.20 mm, No. 2, Corning). The SAMs were prepared by immersing gold films of approximately 1 cm^2 in ethanolic solutions of alkanethiol (2 mM) for 9 hours. The SAMs were rinsed with ethanol and dried with nitrogen before use. As a control monolayer that is not inert, a SAM of hexadecanethiolate that presents hydrophobic methyl groups at the surface were used. Monolayers terminated in the tri(ethylene glycol) group were used as the current standard for inert surfaces. Each of the two additional monolayers presents the mannitol group and differs only in the length of alkyl chain to which the mannitol group is appended. [drawing 9]
SPR was used to measure the adsorption of five proteins—fibrinogen, pepsin, lysozyme, insulin, and trypsin—to the four monolayers. SPR measures changes in the refractive index of a solution near the interface with a gold film by measuring changes in the angle (ΔΘm) at which p-polarized light reflected from the glass/gold interface has a minimum in intensity. SAMs were mounted in a flow cell and experiments were performed by first flowing a phosphate buffered saline (PBS) through the cell for 5 minutes, then a solution of protein in the same buffer (0.5 mg/ml) for 5 minutes, and then PBS for 5 minutes. The rise in ΔΘm upon introduction of the protein solution has two contributions. […] The second contribution is due to the adsorption of protein to the SAM. The amount of protein that adsorbs irreversibly to the SAM is determined by comparing the shift in Θm before and after the SAM is exposed to protein. An increase in Θm of 0.1° corresponds to an increase in density of adsorbed protein of 1 ng/mm^2.

Pepsin = Pepsin (Homo sapiens, UniProt P0DJD8); assay: SPR adsorption of protein on monolayers: pepsin; settings: protein 0.5 mg/ml in PBS pH 7.6, SAM on gold
Chain of Pepsin (P0DJD8 63-388): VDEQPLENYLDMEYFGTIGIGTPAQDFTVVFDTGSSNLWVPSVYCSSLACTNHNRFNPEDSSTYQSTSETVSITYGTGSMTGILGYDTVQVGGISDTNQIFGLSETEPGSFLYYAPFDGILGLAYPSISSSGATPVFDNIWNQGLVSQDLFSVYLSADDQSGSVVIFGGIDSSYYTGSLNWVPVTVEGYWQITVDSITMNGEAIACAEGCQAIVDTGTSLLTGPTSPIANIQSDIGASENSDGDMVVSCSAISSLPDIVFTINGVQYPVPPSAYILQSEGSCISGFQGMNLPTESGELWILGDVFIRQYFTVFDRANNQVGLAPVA
Description: as §1
(§2) Protein adsorption and cell attachment on four different monolayers was compared. Gold films were prepared by evaporation of titanium (1.5 nm) and then gold (40 nm) onto glass cover slips (0.20 mm, No. 2, Corning). […]
(§3) SPR was used to measure the adsorption of five proteins—fibrinogen, pepsin, lysozyme, insulin, and trypsin—to the four monolayers. […] The amount of protein that adsorbs irreversibly to the SAM is determined by comparing the shift in Θm before and after the SAM is exposed to protein. […]

Lysozyme = molecular target: T1, Lysozyme (Homo sapiens, UniProt P61626); assay: SPR adsorption of protein on monolayers: lysozyme; settings: protein 0.5 mg/ml in PBS pH 7.6, SAM on gold
T1 sequence (P61626 19-148): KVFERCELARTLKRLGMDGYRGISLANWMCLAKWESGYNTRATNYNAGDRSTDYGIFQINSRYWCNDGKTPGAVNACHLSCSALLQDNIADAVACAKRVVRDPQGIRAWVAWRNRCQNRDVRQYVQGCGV
Description: as §1, §2, §3

Insulin = assay: SPR adsorption of protein on monolayers: insulin; settings: protein 0.5 mg/ml in PBS pH 7.6, SAM on gold
Description: as §1, §2, §3

Trypsin = assay: SPR adsorption of protein on monolayers: trypsin; settings: protein 0.5 mg/ml in PBS pH 7.6, SAM on gold
Description: as §1, §2, §3

## CCCCCCCCCCCCCCCCS [HDT, hexadecanethiolate]
Fibrinogen; FIG. 1
  adsorption of fibrinogen to the SAM (in words): A complete monolayer of protein adsorbs
  change in Θm on adsorption of fibrinogen: 0.35 °
Fibrinogen
  amount of protein that remains adsorbed to the SAM (Fibrinogen): 3,432 pg/mm^2
Fibrinogen; listed as hexadecanethiolate
  amount of protein that remains adsorbed to the SAM (Fibrinogen): 3,500 pg/mm^2
Pepsin
  amount of protein that remains adsorbed to the SAM (Pepsin): 1,337 pg/mm^2
Lysozyme
  amount of protein that remains adsorbed to the SAM (Lysozyme): 1,023 pg/mm^2
Insulin
  amount of protein that remains adsorbed to the SAM (Insulin): 688 pg/mm^2
Trypsin
  amount of protein that remains adsorbed to the SAM (Trypsin): 661 pg/mm^2
